Measured values published in the NIST ThermoML archive (doi:10.1016/j.jct.2008.07.005).

Test: xn = mol fraction of the nth substance listed
Details: 98.93 kPa, Liquid

OCC(O)CO [glycerol] + O
mass density [kg/m3]
Details | 283.15 K | 288.15 K | 293.15 K | 298.15 K | 303.15 K | 308.15 K
x1 = 0.002 | 1002.15 | 1001.53 | 1000.6 | 999.43 | 998.01 | 996.37
x1 = 0.005 | 1005.76 | 1005.11 | 1004.14 | 1002.93 | 1001.48 | 999.81
x1 = 0.01 | 1011.64 | 1010.93 | 1009.9 | 1008.63 | 1007.12 | 1005.42
x1 = 0.019 | 1022.85 | 1022.06 | 1020.89 | 1019.51 | 1017.89 | 1016.12
x1 = 0.03 | 1033.4 | 1032.52 | 1031.22 | 1029.73 | 1028.03 | 1026.18
x1 = 0.04 | 1043.36 | 1042.38 | 1040.97 | 1039.37 | 1037.58 | 1035.66
x1 = 0.05 | 1052.76 | 1051.69 | 1050.15 | 1048.46 | 1046.58 | 1044.59
x1 = 0.065 | 1065.9 | 1064.68 | 1062.99 | 1061.17 | 1059.16 | 1057.08
x1 = 0.08 | 1078.01 | 1076.64 | 1074.81 | 1072.85 | 1070.74 | 1068.56
x1 = 0.1 | 1092.7 | 1091.17 | 1089.16 | 1087.05 | 1084.79 | 1082.51
x1 = 0.125 | 1109.07 | 1107.35 | 1105.15 | 1102.86 | 1100.45 | 1098.03
x1 = 0.1526 | 1124.96 | 1123.05 | 1120.68 | 1118.23 | 1115.66 | 1113.11
x1 = 0.17 | 1133.96 | 1131.96 | 1129.5 | 1126.96 | 1124.3 | 1121.66
x1 = 0.18 | 1138.83 | 1136.77 | 1134.27 | 1131.68 | 1128.97 | 1126.28
x1 = 0.2 | 1147.94 | 1145.78 | 1143.22 | 1140.54 | 1137.73 | 1134.94
